Data as given in patent publication US20120065123A1, “Synthetic Antibodies” (priority 2009, published 2012).
Where two headings read alike, the source gives them in different places. Where no end group is shown, it is not given here. The star is where a group is joined. StBu = CC(C)(C)S*

Tests used:
Type in all cases: binding
TNF-α = TNF-α (Homo sapiens, UniProt P01375); assay: SPR of TNF1 lead and mutant peptides on captured TNF-α (Biacore A100); details: for Binding ΔG (observed): calculated from dissociation constants; for Predicted Binding ΔG: sum of component contributions, energetic additivity
TNF-α, sequence (P01375 77-233 limits assumed, species assumed): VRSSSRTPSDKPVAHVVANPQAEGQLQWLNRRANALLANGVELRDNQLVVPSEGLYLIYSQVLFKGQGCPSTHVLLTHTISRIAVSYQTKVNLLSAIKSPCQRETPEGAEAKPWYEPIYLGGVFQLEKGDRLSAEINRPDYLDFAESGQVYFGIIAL
Source text: Scanning Mutagenesis of the TNF1 Lead Peptide. After lead identification, the next step in the AMPLI algorithm is characterization of point mutations in the lead heteropolymer. Using short peptides makes it chemically feasible to synthesize a significant fraction of the point-mutant space, which can then be screened for enhanced point mutations. For example, all possible point mutations in the 17 randomized positions using all 20 natural amino acids could be synthesized and screened within a single 384-well plate (323 total point-mutants). However, libraries containing all 20 natural amino acids are not required for affinity optimization of protein-protein interactions. A library of TNF1 point-mutants containing all substitutions of the amino acid set {Y, A, D, S, K, N, V, W} in each of the 17 randomized positions (132 unique point-mutants) was synthesized. Tyrosine (Y), alanine (A), aspartic acid (D) and serine (S) were selected because of their effectiveness in producing high affinity interactions when substituted into the complementary-determining regions (CDRs) of synthetic antibodies (Felouse, Proceedings of the National Academy of Sciences 101(34):12467, 2004), lysine (K) was selected to balance the charge in the substitution set, asparagine (N), valine (V) and tryptophan (W) were selected to span the hydropathicity range (Kyte J & Doolittle R F, Journal of Molecular Biology 157(1):105-132, 1982). […] This concentration was used to increase the high-end dynamic range for quantifying enhancing point mutations at the expense of low-end dynamic range for quantifying detrimental point mutations.
Point-mutant libraries were prepared in 96-well stock plates From the stock plate, peptides were diluted to 50 μM concentration in Biacore HBS-EP buffer (GE Healthcare, Piscataway, N.J.) containing 1 mg/ml carboxymethyl-dextran (Sigma-Aldrich, St. Louis, Mo.) to reduce non-specific binding to the CM-5 SPR chip surface. TNF-α was captured on a CM-5 chip surface at different capture levels on spots 1, 2, 4, and 5 across all four flow cells corresponding to a 40-200 RU range of predicted Rmax binding responses. Spot 3 contained only immobilized neutravidin and served as a reference spot.
Using the prepared 96-well plates and Biacore A100 SPR instrument, four peptides were flowed separately, in parallel, through the four flow cells over all 4 TNF-α spots and the neutravidin reference spot, with a 60 second association phase and 300 second dissociation phase. SPR sensorgrams were recorded for each peptide response with all 4 TNF-α spots and the neutravidin reference spot across the four flow cells on the SPR chip. Surface regeneration was performed after every 12 injections in each flow cell with Biacore Glycine 2.5 regeneration solution (GE Healthcare, Piscataway, N.J.). Point-mutant reference subtracted, peptide molecular weight adjusted, responses at the late binding region of the sensorgram (a few seconds before dissociation) were compared to the response of the TNF1 lead
Purified point-mutant affinities were measured on the Biacore A100 using SPR equilibrium binding response across a series of peptide concentrations on an SPR chip with TNF-α captured as described above.
These sequences were synthesized and purified using standard solid-phase FMOC synthesis and HPLC purification.

Transferrin [1] = biological target: T1, Transferrin (Homo sapiens, UniProt P02787); assay: Peptide microarray ranking, labeled transferrin with E. coli lysate competitor; details: for Rank -- prewash: array with organic prewash; for Rank - non-prewash: array without organic prewash
T1 sequence (P02787 20-698): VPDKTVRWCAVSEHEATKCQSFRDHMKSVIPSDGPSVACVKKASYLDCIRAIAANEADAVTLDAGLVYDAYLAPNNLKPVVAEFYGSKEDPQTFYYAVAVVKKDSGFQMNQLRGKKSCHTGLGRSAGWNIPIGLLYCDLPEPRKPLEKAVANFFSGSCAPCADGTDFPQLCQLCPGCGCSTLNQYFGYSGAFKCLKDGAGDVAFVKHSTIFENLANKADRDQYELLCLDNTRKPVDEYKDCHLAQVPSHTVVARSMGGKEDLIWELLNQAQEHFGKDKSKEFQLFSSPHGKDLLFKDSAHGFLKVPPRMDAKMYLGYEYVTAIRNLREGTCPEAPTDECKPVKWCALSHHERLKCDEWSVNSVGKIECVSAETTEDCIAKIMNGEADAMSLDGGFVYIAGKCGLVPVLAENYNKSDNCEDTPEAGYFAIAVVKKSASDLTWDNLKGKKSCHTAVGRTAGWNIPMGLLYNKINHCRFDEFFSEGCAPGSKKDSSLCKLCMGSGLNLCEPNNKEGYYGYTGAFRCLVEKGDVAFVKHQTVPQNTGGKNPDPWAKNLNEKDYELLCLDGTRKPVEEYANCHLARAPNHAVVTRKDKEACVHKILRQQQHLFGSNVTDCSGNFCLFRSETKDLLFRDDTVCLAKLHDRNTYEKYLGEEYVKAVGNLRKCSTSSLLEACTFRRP
Method: Several polypeptides were identified as candidate affinity elements for synbodies against an arbitrarily chosen protein target, transferrin, by incubating transferrin on the polypeptide microarray in the presence of E. coli lysate competitor. Transferrin was randomly direct-labeled at free amines with Alexa™ 555, and E. coli lysate was randomly direct-labeled at free amines with Alexa™ 647. Three replicate arrays were passivized by applying a mixture of BSA and mercaptohexanol for one hour. The arrays were blocked with unlabelled E. coli lysate for one hour, then washed three times with TBST (0.05% Tween) followed by three times with water. A mixture of labeled transferrin and labeled E. coli lysate was applied to the three replicate arrays and incubated for three hours. The arrays were again washed three times with TBST (0.05% Tween) followed by three times with water, and scanned at 555 nm and 647 nm using an array reader. Polypeptides were ranked as candidates for inclusion as affinity elements of synbodies by computing a score for each polypeptide equal to the mean raw 555 nm intensity over the six replicate features, squared, divided by the mean raw 647 nm intensity over the six replicate features. This simple scoring function tends to favor candidate polypeptides that bind at least moderate affinity, since otherwise the 555 nm intensity would be relatively lower, and that are relatively specific, since otherwise the 647 nm intensity would be relatively higher and contribute to a relatively lower score. Many variations of this ranking and identification process can be used, such as, by way of non-limiting examples, two-color comparisons against other competitors; comparisons with data taken in separate experiments with respect to other targets; and use of scoring functions taking into account other factors, employing other functional relationships, and/or involving statistical analysis and/or preprocessing of data and/or correcting for background fluorescence and/or other factors affecting the accuracy of the measured intensities. Ten polypeptides (Table 1) were identified for further evaluation for use as affinity elements in synbodies by choosing the polypeptides having the highest score (one polypeptide was rejected as difficult to synthesize, so the polypeptides chosen were ten of those having the eleven highest scores).
After preparation of the array in accordance with the methods previously described in Example 2, the array was washed one time for five minutes in 7.33% acetonitrile, 37% isopropanol, 0.55% trifluoroacetic acid, and 55% water. Alexa 555 labeled target protein transferrin was applied, together with Alexa 647 labeled E. coli lysate competitor, to the prewashed array and to an identical array without organic prewash. […] 5,010 on the array without organic prewash, but ranked no. 9601 on the prewashed array. Conversely, peptide TRF-21, shown by SPR analysis to be a relatively strong binder of transferrin, rose in rank from 84 on the non-prewashed array to rank no. 5 on the prewashed array.

Transferrin [2] = biological target: T1, Transferrin; assay: SPR solution phase KD of candidate affinity elements, transferrin immobilized (Biacore T100); details: steady-state response, 25° C., PBST
Method: Transferrin 25 μg/ml in immobilization buffer selected for correct pH was then applied 302 at a flow rate of 5 to 10 μl/min for a contact time of about 5 to 10 minutes, allowing the amine functionality on the transferrin 308 to displace the activated NHS ester and bond to the surface via an amide bond. Finally, ethylene diamine (1M ethylene diamine-HCl at pH 8.5) was applied 304 at a flow rate of 5 to 10 μl/min for a contact time of about 6 to 7 minutes to deactivate any remaining reactive groups on the dextran chip surface. Flow rates and contact times are adjusted as necessary to provide the surface concentration of target desired for the intended application, and may vary by target. In general, for evaluating whether binding occurs, it is preferable to immobilize a relatively large quantity of target, and higher flow rates and/or longer contact times may be used. For determining kinetics, it is preferable to limit the amount of target immobilized so as to minimize rebinding and avidity effects, and lower flow rates and/or contact times may be used.
Candidate affinity elements for the transferrin synbody TRF19, TRF21, TRF23, TRF24, TRF25, and TRF26 were individually evaluated for solution phase KD with respect to transferrin by SPR analysis. Because the off rates for these polypeptides were very high, KD values were estimated by measuring steady-state response for at least five concentrations in a two-fold dilution series, each concentration tested in duplicate. For each experiment, response data were processed using a reference surface to correct for bulk refractive index changes and any non-specific binding. Data were also double referenced using responses from blank running buffer injections. Each experiment was conducted at 25° C. using PBST (0.01M Phosphate Buffered Saline, 0.138M NaCl, 0.0027M KCl, 0.05% surfactant Tween20, pH 7.4) as the running buffer on a Biacore T100 instrument. Analytes were injected for 60 s at a flow rate of 30 μl/min. The antigen surfaces were regenerated with 30 s consecutive pulses of NaOH/NaCl (50 mM NaOH in 1M NaCl) and Glycine (10 mM glycine-HCl, pH 2.5).

Transferrin [3] = biological target: T1, Transferrin; assay: SPR steady state affinity of mRNA display clones (Biacore T100); details: for Kd: steady state affinity model
Method: Five clones (see Table 15) were selected, synthesized and purified by HPLC for characterization by surface plasmon resonance (SPR) (T 100 instrument from Biacore). Transferrin was immobilized using standard NHS/EDC immobilization chemistry according to the methods described in Frostell-Karlsson, A., Remaeus, A., Andersson, K., Borg, P., Hamalainen, M., and Karlsson, R. (2000) J. Med. Chem. 43, resulting in 9758 RU of immobilized protein. HPLC purified peptides were injected over the surface and sensograms were recorded at multiple concentrations (32, 16, 8, 4, 2, 1, 0.5, 0.25, 0.125, and 0.0625 μM). Affinity plots were generated for each peptide and fit using a steady state affinity model.

[4] = biological target: Tumor Necrosis Factor-alpha (TNF-α) (Homo sapiens, UniProt P01375); assay: Chromatographic affinity screening on protein-coupled pipette tips with MALDI readout; details: 500 nM each synbody in E. Coli Lysate
Tumor Necrosis Factor-alpha (TNF-α), sequence (P01375 77-233 limits assumed, species assumed): as the sequence (P01375 77-233 limits assumed, species assumed) above
Method: The target proteins, Transferrin (TRF) and Tumor Necrosis Factor-alpha (TNF-α), were each covalently attached to pipette tips (one protein per pipette tip) containing carboxymethyl dextran matrix (Intrinsic Bioprobes, Tempe, Ariz.) using standard amine coupling chemistry. The unmodified tips were first washed with 0.5 M HCl followed by acetone. Each tip was activated using a 50 mg/mL solution of […] (CDI) in N-methyl-pyrolidone (NMP). Each tip was washed with NMP to remove excess CDI. Each protein was prepared as a 50 μg/mL solution in 100 mM sodium acetate pH 5.0 and cycled through a CDI activated tip for 30 minutes. Un-reacted CDI in the tip was then quenched with the addition of 1.5 M ethanolamine pH 8.5 and then washed extensively with HBS-N buffer. The protein-coupled tips were then stored in HBS-N buffer at 4° C. Negative control tips were prepared in the same manner except that no protein was added to the sodium acetate solution during the protein coupling step.
A library of 14 candidate synbodies (Table 9) was prepared by making 12 μM stock solutions in 1× phosphate buffered saline (PBS) of each HPLC purified synbody and […] of each stock solution was added to 600 μL of E. Coli Lysate that had been treated with a protease inhibitor. Thus the final concentration of each synbody was 500 nM.
A negative control pipette tip (blank tip), a TRF tip, and a TNF-α tip, were washed with 0.1% sodium dodecyl sulfate (SDS) to remove any non-covalently bound protein and then washed with HBS buffer. The tips were then incubated for 15 minutes in 150 μL of the synbody library. Each tip was then washed 5 times in 150 μL of HBS-N. This step was then repeated and each tip was washed 5 times in 150 μL of 0.25 M NaCl. Each tip was then washed 5 times in 150 μL of Milli-Q water and this step was repeated. […]
Each elution sample was spotted onto a MALDI plate and analyzed in reflectron mode on a Bruker Daltonics UltraFlex III TOF/TOF MALDI Mass Spectrometer.

[5] = SPR equilibrium binding response, read-out: Kd (observed)
[6] = energetic additivity of component mutations, read-out: Predicted Kd

Substance: FERSYLMMPWKFLQSRQGSC [D4S + P5Y + S11K]
- Kd Fold-Change Relative to Lead (TNF-α): 23 ± 3.2
- observed binding energy difference to the D4S+P5Y+M7K+S11K quadruple mutant (TNF-α): -0.94 ± 0.12 kcal/mol
- Kd (TNF-α; [5]): 7 ± 0.5 µM
- Binding ΔG (observed) (TNF-α): -7.03 ± 0.04 kcal/mol
- Kd (TNF-α; [6]): 2.8 to 5.3 µM
- Predicted Binding ΔG (TNF-α): -7.38 ± 0.19 kcal/mol

Substance: FERYPLMMPWKFLQSRQGSC [D4Y + S11K]
- Kd Fold-Change Relative to Lead (TNF-α): 17 ± 2.5
- Kd (TNF-α; [5]): 9.3 ± 0.7 µM
- Binding ΔG (observed) (TNF-α): -6.67 ± 0.05 kcal/mol
- Kd (TNF-α; [6]): 8 to 15 µM

Substance: LDPLFNTSIMVNWHRWMGSC [TRF27]
- Rank -- prewash (Transferrin [1]): 3325
- Rank - non-prewash (Transferrin [1]): 1289

Substance: FERDPLMMPWKFLQSRQGSC [Synbody S11K]
- Component Binding ΔG Contribution (TNF-α): -0.82 ± 0.13 kcal/mol
- Kd Fold-Change Relative to Lead (TNF-α): 3.9 ± 0.9
- Kd (TNF-α; [5]): 40 ± 7.2 µM
- Binding ΔG (observed) (TNF-α): -6.03 ± -.10 kcal/mol

Substance: SVKPWRPLITGNRWLNSGSC [TRF24]
- Kd (Transferrin [2]): ~50 µM
- Rank -- prewash (Transferrin [1]): 958
- Rank - non-prewash (Transferrin [1]): 71

Substance: GHKVVPQRQIRHAYNRYGSC [TBPL005]
- Kd (Transferrin [3]): 150 µM

Substance: AHKVVPQRQMRHAYSRYGSC [TBPM023]
- fold improvement of affinity in comparison to TRF26 (Transferrin [3]): more than 10 fold
- Kd (Transferrin [3]): 11.6 µM

Substance: FERYPLMMPWSFLQSRQGSC [Synbody D4Y]
- Component Binding ΔG Contribution (TNF-α): -0.74 ± 0.10 kcal/mol
- Kd Fold-Change Relative to Lead (TNF-α): 3.6 ± 0.6
- Kd (TNF-α; [5]): 44 ± 4.8 µM
- Binding ΔG (observed) (TNF-α): -5.95 ± 0.06 kcal/mol

Substance: GQTQFAMHRFQQWYKIKGSC [TRF20]
- Rank -- prewash (Transferrin [1]): 289
- Rank - non-prewash (Transferrin [1]): 18

Substance: TNF2-TNF3-KC-stBu: lysine-linked synbody (peptide 1 SMKMVQPGHLLISYGHQGSGKC(StBu); peptide 2 RTTEMPFVFALGSVHPGGSG; not fully specified)
- MALDI peak in TNF-α tip elution (retention by target) [4]: showed a peak

Substance: HAYKGPGDMRRFNHSGMGSC [TRF22]
- Rank -- prewash (Transferrin [1]): 61
- Rank - non-prewash (Transferrin [1]): 711

Substance: APYAPQQIHYWSTLGFKGSC [TRF25]
- Kd (Transferrin [2]): ~60 µM
- Rank -- prewash (Transferrin [1]): 603
- Rank - non-prewash (Transferrin [1]): 736

Substance: FERYPLKMPWSFLQSRQGSC [D4Y + M7K]
- Kd Fold-Change Relative to Lead (TNF-α): 9.4 ± 1.6
- Kd (TNF-α; [5]): 17 ± 1.9 µM
- Binding ΔG (observed) (TNF-α): -6.54 ± 0.07 kcal/mol
- Kd (TNF-α; [6]): 8.5 to 20 µM
- Predicted Binding ΔG (TNF-α): -6.66 ± 0.25 kcal/mol

Substance: GHKVVPQRQMRHAYNRNGSC [TBPL025]
- Kd (Transferrin [3]): 150 µM

Substance: QYHHFMNLKRQGRAQAYGSC [TRF21]
- Kd (Transferrin [2]): ~60 µM
- Rank -- prewash (Transferrin [1]): 5
- Rank - non-prewash (Transferrin [1]): 84

Substance: KEDNPGYSSEQDYNKLDGSC [TRF19]
- Kd (Transferrin [2]): ~150 µM
- Rank -- prewash (Transferrin [1]): 9601
- Rank - non-prewash (Transferrin [1]): 5010
- Rank - non-prewash (Transferrin [1]; listed as TRF-19): 5,010

Substance: FERDPLMMPWSFLQSRQGSC [TNF1]
- Binding ΔG (observed) (TNF-α): -5.21 ± 0.07 kcal/mol
